Tests used:
Test in all cases: KinomeScan profiling
Assay type in all cases: binding
[1] = biological target: T1, CSF1R-autoinhibited (Homo sapiens, UniProt P07333); settings: read-out: % control
T1 sequence (P07333 539-972 limits assumed): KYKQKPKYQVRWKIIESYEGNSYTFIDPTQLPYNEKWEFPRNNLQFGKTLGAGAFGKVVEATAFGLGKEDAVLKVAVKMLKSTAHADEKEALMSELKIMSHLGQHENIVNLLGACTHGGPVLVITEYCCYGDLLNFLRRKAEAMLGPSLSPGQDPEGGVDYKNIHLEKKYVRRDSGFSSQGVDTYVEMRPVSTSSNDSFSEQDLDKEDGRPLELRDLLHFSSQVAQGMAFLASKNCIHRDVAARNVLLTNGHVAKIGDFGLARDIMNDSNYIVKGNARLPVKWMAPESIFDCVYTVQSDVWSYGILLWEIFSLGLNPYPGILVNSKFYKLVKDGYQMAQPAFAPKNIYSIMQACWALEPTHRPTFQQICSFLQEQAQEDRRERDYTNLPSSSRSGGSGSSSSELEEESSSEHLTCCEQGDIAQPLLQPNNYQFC
Method in brief: (§1)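 1 μM cpd in DMSO; 468-kinase panel; readout RLU. % ctrl = (cpd − pos ctrl)/(neg ctrl − pos ctrl) ×100. Pos ctrl = 0%, DMSO = 100%. Hit cut-off <35%.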

[2] = biological target: T2, IRAK3 (Homo sapiens, UniProt Q9Y616); settings: IRAK3, 1 μM; read-out: % control
T2 construct: purchased KinomeScan®
T2 sequence (Q9Y616 1-596): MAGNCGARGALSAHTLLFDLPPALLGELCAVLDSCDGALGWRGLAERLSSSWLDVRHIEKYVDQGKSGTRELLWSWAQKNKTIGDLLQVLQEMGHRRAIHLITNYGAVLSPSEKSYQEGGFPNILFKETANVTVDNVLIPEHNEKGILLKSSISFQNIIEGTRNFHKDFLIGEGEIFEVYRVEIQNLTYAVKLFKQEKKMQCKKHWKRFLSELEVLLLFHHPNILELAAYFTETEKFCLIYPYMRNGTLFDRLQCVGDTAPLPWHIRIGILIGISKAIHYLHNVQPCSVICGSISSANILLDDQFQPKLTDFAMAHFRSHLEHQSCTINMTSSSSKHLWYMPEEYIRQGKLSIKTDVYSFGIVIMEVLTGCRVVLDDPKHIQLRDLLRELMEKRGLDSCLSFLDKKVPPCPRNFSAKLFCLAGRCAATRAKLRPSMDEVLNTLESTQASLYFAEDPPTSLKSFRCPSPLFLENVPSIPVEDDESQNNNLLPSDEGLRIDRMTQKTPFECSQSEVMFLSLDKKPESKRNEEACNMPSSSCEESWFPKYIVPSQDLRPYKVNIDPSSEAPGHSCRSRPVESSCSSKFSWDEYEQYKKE
Method in brief: as §1

[3] = biological target: T3, TNK1 (Homo sapiens, UniProt Q13470); settings: TNK1, 1 μM; read-out: % control
T3 sequence (Q13470 1-666): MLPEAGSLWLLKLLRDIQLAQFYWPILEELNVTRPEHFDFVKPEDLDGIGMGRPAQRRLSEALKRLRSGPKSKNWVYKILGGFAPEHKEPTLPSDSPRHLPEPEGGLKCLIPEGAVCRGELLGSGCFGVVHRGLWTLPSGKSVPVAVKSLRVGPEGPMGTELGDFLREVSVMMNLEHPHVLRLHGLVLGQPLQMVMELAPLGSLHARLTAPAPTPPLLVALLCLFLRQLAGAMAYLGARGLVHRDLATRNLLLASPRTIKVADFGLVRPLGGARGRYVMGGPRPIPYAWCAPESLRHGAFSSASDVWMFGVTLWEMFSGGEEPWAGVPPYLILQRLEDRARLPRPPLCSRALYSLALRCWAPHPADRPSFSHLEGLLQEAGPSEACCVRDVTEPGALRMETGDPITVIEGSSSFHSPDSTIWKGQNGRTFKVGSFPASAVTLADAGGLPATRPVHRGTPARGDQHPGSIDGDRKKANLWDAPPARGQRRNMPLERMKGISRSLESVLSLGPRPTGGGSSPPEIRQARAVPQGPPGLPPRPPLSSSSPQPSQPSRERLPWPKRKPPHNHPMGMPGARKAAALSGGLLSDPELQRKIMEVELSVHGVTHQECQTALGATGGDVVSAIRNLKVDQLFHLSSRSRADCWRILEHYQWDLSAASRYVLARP
Method in brief: as §1

[4] = biological target: T4, BRAF(V600E) (Homo sapiens, UniProt P15056, V600E); settings: read-out: % control
T4 construct: purchased KinomeScan®
Method in brief: as §1

[5] = biological target: ERBB2 (Homo sapiens, UniProt P04626); settings: ERBB2, 1 μM; read-out: % control
Method in brief: as §1

[6] = biological target: DYRK1B (Homo sapiens, UniProt Q9Y463); settings: read-out: % control
Method in brief: as §1

DYRK1B, sequence (Q9Y463 whole entry): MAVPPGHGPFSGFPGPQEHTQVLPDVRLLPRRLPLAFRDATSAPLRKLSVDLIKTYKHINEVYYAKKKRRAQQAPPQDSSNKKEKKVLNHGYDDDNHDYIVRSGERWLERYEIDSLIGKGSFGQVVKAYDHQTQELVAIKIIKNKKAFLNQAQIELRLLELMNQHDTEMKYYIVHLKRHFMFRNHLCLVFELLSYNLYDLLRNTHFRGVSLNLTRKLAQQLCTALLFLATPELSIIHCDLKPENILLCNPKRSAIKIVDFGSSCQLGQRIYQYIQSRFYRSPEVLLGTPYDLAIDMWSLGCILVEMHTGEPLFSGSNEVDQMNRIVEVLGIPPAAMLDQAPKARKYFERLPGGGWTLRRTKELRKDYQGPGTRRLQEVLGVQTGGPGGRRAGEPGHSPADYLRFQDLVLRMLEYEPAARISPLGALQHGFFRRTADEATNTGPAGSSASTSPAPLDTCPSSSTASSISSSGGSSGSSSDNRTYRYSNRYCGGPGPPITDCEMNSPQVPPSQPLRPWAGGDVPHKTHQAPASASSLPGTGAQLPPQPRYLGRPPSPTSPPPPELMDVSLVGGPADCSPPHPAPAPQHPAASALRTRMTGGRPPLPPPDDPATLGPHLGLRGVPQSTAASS
ERBB2, sequence (P04626 23-1255): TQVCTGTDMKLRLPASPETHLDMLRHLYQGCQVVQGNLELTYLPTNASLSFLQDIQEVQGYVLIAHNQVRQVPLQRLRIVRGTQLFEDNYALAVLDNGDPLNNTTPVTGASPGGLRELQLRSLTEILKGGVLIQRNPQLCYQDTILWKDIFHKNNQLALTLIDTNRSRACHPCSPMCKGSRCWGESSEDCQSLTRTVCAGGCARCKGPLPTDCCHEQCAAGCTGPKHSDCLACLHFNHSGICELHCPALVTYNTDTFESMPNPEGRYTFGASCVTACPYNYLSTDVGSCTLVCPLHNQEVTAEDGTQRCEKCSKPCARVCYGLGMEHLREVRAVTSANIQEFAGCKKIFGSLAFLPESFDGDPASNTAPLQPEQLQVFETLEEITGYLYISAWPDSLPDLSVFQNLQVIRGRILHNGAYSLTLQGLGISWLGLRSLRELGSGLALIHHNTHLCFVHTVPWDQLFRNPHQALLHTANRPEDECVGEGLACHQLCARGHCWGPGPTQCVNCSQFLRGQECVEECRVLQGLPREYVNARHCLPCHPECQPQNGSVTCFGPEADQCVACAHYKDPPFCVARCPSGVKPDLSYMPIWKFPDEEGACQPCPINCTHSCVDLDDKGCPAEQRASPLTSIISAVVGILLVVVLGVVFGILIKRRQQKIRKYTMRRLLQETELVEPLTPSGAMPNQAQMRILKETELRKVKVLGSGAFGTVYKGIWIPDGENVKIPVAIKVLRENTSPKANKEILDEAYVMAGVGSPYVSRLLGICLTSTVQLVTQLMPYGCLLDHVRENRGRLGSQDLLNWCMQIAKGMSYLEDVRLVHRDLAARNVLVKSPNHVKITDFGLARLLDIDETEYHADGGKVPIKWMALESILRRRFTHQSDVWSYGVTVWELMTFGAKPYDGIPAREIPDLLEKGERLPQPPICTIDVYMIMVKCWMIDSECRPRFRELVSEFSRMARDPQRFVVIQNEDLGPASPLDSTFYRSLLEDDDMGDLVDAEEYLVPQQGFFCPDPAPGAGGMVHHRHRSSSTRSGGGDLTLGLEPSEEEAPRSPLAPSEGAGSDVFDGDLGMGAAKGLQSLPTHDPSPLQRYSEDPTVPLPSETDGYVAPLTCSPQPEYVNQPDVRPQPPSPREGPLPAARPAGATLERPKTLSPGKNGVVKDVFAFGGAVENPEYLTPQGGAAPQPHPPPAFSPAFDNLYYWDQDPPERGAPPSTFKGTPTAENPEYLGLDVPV
T4 sequence (P15056 whole entry V600E): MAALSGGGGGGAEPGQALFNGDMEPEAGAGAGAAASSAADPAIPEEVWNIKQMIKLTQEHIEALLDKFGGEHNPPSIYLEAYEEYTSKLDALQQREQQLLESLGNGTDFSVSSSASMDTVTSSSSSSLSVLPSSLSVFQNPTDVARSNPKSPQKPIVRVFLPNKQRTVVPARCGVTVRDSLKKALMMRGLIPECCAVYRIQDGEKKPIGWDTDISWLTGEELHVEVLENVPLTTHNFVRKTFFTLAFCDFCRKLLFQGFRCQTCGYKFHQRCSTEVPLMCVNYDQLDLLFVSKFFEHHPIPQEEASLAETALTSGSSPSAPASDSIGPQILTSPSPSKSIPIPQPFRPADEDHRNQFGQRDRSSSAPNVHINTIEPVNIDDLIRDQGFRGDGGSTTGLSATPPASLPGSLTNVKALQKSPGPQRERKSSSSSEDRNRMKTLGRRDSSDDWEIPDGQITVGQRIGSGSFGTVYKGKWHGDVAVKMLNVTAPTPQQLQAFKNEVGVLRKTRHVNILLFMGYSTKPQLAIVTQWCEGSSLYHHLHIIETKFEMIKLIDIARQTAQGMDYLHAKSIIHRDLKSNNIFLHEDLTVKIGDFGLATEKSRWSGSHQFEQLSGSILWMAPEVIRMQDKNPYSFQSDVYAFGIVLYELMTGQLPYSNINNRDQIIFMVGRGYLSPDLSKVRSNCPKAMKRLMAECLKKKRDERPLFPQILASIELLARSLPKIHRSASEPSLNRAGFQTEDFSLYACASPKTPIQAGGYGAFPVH

| Structure (SMILES) | remaining binding at 1 µM [1] | remaining binding at 1 µM [2] | remaining binding at 1 µM [3] | remaining binding at 1 µM [4] | remaining binding at 1 µM [5] | remaining binding at 1 µM [6] |
| --- | --- | --- | --- | --- | --- | --- |
| CNc1c(-c2cnn([C@H]3CCN(C(C)=O)C[C@@H]3F)c2)cnc2[nH]cc(Cl)c12 [Compound 77, 1-((3S,4S)-4-(4-(3-chloro-4-(methylamino)-1H-pyrrolo[2,3-b]pyridin-5-yl)-1H-pyrazol-1-yl)-3-fluoropiperidin-1-yl)ethan-1-one] | 30% | 40% | 80% | 98% | 63% | 100% |
| O=C(c1ccc(-c2cnc3[nH]cc(Cl)c3c2NC2CCCC2)cc1)N1CCC(N2CCOCC2)CC1 [Compound 101, (4-(3-chloro-4-(cyclopentylamino)-1H-pyrrolo[2,3-b]pyridin-5-yl)phenyl)(4-morpholinopiperidin-1-yl)methanone] | 3.2% | 37% | 50% | 99% | 92% | 89% |
| CNc1c(-c2ccc(C(=O)N3CCC(N4CCOCC4)CC3)cc2)cnc2[nH]cc(Cl)c12 [Compound 96, (4-(3-chloro-4-(methylamino)-1H-pyrrolo[2,3-b]pyridin-5-yl)phenyl)(4-morpholinopiperidin-1-yl)methanone] | 49% | 76% | 83% | 87% | 80% | 100% |

— patent US12275731B2, “Azaindole inhibitors of wild-type and mutant forms of LRRK2” (DANA-FARBER CANCER INSTITUTE, INC., priority 2018, dated 2025)
